Results reported in ChEMBL document CHEMBL4507268 (2021).

Tests used:
[1] = target: Sigma intracellular receptor 2 (Homo sapiens, UniProt Q5BJF2); test: GPCRScan assay: inhibition of Sigma 2; parameters: radioligand conc. used [nm] 5.0, parental cells HEKT
[2] = target: Serine/threonine-protein kinase N1 (Homo sapiens) (UniProt Q16512); details: Compound concentration 1000.0 nM
[3] = target: Cyclin-dependent kinase 2 homolog (Plasmodium falciparum (isolate 3D7)) (UniProt P61075); details: Compound concentration 1000.0 nM
Sequence of Cyclin-dependent kinase 2 homolog (Plasmodium falciparum (isolate 3D7)) (P61075 whole entry): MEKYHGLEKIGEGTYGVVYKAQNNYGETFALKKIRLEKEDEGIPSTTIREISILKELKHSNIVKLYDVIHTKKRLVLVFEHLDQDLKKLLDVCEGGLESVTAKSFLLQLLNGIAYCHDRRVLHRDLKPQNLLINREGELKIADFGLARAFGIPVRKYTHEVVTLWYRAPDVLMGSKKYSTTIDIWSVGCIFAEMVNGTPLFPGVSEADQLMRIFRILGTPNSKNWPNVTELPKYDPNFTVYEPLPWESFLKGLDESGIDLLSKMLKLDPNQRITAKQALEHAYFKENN

[4] = target: Serine/threonine-protein kinase OSR1 (Homo sapiens) (UniProt O95747); details: Compound concentration 1000.0 nM
Sequence of Serine/threonine-protein kinase OSR1 (Homo sapiens) (O95747 2-527 limits assumed): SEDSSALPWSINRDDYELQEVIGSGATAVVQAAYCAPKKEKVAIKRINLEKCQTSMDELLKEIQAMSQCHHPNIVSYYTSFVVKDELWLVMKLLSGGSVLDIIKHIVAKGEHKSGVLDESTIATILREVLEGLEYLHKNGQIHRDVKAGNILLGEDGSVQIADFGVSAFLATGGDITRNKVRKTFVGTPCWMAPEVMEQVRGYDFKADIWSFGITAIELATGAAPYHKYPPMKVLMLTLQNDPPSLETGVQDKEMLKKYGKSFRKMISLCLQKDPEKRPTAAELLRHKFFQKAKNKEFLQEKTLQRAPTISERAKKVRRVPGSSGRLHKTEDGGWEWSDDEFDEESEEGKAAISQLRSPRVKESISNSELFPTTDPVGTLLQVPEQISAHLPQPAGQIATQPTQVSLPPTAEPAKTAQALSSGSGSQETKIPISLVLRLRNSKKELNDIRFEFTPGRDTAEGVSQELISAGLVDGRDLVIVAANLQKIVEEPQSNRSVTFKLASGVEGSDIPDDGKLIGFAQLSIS

[5] = target: Alpha-2C adrenergic receptor (Homo sapiens) (UniProt P18825); details: Compound concentration 10.0 uM
Sequence of Alpha-2C adrenergic receptor (Homo sapiens) (P18825 whole entry): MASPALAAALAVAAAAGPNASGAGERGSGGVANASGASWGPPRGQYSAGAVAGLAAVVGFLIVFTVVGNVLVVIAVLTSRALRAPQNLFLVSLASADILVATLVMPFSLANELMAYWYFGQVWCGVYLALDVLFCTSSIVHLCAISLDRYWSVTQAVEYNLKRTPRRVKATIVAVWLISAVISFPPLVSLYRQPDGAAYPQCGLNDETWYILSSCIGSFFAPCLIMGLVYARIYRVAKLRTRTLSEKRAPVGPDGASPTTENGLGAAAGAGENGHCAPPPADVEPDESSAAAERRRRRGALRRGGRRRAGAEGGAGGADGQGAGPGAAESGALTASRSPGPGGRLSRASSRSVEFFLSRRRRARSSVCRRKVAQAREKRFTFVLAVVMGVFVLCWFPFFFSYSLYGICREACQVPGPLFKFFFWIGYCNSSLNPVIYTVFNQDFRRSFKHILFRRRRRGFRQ

[6] = target: T1, Ephrin type-A receptor 1 (Homo sapiens) (UniProt P21709); details: Compound concentration 1000.0 nM
T1 sequence (whole entry): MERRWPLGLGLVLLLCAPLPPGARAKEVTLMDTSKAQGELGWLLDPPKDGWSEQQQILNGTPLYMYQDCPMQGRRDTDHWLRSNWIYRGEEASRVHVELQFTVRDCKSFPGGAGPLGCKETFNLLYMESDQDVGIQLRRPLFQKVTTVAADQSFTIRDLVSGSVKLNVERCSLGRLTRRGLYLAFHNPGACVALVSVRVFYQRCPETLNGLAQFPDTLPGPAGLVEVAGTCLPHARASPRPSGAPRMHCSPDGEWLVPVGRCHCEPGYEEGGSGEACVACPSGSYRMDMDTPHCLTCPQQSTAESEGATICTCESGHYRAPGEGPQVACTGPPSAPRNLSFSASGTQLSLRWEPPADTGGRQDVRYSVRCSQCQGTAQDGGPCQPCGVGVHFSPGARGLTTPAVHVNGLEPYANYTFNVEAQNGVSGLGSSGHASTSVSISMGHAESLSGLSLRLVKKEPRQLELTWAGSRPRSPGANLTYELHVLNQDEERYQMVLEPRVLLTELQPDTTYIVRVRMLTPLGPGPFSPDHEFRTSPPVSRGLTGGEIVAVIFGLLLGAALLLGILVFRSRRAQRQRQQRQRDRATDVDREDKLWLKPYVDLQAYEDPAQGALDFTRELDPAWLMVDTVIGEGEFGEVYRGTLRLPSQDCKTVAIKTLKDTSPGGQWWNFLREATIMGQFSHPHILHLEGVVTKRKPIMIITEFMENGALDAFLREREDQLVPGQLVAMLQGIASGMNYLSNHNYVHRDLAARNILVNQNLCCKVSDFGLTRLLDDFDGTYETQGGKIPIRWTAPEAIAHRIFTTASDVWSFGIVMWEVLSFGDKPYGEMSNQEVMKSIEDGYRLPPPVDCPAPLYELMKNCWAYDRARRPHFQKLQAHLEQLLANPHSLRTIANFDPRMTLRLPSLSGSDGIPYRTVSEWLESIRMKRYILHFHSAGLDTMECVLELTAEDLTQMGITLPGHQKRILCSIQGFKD

[7] = test system: Phosphatidylinositol 4,5-bisphosphate 3-kinase catalytic subunit alpha isoform (Homo sapiens), P42336 [C420R]; details: Compound concentration 1000.0 nM
Sequence of Phosphatidylinositol 4,5-bisphosphate 3-kinase catalytic subunit alpha isoform (Homo sapiens), P42336 [C420R] (P42336 whole entry C420R, canonical isoform): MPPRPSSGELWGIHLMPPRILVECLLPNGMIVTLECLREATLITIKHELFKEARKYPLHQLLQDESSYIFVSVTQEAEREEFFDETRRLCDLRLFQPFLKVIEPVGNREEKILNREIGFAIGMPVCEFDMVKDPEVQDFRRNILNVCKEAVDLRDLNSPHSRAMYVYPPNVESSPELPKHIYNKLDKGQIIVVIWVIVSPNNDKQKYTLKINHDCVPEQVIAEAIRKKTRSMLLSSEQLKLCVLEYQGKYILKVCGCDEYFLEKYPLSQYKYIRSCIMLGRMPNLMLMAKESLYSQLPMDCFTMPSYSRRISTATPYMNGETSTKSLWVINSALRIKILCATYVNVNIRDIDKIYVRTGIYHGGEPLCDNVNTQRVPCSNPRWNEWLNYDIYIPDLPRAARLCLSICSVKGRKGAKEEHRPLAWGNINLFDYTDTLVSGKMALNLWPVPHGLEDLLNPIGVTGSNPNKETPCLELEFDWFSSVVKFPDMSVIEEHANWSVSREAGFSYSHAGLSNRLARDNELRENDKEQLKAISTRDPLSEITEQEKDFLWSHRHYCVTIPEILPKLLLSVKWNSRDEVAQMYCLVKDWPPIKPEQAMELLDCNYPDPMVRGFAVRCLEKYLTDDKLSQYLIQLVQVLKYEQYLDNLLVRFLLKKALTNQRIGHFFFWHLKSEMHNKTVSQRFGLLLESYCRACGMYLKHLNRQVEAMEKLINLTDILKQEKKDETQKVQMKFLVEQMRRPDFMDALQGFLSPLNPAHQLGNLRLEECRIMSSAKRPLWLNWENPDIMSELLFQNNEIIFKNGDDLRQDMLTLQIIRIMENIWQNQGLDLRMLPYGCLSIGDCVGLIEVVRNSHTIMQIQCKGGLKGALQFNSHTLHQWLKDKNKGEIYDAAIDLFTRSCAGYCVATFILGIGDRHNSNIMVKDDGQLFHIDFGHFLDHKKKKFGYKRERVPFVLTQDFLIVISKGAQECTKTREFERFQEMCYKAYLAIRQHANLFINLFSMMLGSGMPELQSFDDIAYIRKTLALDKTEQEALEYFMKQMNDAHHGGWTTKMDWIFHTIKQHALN

[8] = target: Protein kinase C eta type (Homo sapiens) (UniProt P24723); details: Compound concentration 1000.0 nM
Sequence of Protein kinase C eta type (Homo sapiens) (P24723 whole entry): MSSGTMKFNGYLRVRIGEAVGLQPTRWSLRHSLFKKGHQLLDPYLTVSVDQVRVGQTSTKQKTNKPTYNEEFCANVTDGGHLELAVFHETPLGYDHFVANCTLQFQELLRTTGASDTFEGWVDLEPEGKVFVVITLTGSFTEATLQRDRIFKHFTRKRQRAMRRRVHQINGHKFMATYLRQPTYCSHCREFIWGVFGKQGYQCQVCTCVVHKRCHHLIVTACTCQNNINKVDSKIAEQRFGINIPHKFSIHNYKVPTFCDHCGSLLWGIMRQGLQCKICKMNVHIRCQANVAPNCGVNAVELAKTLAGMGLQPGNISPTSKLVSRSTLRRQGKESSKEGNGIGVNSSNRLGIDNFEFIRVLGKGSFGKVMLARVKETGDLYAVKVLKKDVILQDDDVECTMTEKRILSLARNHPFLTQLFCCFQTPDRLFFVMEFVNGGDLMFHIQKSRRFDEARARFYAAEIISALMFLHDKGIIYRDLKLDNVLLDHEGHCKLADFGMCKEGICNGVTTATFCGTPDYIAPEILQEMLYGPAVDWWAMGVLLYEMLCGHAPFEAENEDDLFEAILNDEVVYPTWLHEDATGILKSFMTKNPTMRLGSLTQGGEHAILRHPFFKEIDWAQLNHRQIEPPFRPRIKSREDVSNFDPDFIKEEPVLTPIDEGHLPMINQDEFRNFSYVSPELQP

[9] = target: Mitogen-activated protein kinase kinase kinase 10 (Homo sapiens) (UniProt Q02779); details: Compound concentration 1.0 uM
[10] = target: T2, cAMP-dependent protein kinase catalytic subunit PRKX (Homo sapiens) (UniProt P51817); details: Compound concentration 1.0 uM
T2 sequence (whole entry): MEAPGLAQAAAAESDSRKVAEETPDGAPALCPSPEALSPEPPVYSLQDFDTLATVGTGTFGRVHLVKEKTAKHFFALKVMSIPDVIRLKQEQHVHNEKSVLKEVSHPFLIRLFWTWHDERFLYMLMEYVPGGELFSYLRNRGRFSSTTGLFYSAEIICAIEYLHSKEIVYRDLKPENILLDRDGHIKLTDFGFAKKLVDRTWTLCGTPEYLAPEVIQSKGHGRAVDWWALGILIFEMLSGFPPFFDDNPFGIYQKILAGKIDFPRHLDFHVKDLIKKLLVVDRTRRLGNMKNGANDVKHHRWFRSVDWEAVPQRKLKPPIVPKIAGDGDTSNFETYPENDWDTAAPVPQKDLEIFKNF

[11] = target: T3, Serine/threonine-protein kinase haspin (Homo sapiens) (UniProt Q8TF76); details: Compound concentration 1.0 uM
T3 sequence (whole entry): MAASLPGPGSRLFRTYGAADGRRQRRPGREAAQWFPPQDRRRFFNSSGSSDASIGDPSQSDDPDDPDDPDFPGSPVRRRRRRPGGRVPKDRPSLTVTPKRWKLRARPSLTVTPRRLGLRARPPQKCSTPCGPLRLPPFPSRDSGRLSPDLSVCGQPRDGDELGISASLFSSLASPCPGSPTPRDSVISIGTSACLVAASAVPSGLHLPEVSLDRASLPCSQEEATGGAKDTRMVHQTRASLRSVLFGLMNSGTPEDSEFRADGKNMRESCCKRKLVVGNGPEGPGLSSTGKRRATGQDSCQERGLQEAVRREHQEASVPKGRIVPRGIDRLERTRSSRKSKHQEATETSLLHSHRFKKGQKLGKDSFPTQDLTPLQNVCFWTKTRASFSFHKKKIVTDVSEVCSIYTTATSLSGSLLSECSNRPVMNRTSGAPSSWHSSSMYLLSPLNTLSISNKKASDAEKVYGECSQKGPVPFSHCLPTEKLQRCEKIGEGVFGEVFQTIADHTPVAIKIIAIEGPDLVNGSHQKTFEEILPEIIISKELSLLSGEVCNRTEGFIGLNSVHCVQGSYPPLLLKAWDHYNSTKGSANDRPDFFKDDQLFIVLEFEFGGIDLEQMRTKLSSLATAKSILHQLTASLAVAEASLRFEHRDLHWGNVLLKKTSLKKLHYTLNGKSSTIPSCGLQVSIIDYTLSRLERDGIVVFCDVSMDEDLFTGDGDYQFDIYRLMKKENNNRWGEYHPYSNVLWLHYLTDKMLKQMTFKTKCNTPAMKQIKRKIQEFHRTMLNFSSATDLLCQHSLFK

[12] = target: Cyclin-dependent kinase-like 3 (Homo sapiens) (UniProt Q8IVW4); details: Compound concentration 1.0 uM
[13] = target: Sodium-dependent serotonin transporter (Homo sapiens) (UniProt P31645); details: Compound concentration 10.0 uM
Sequence of Sodium-dependent serotonin transporter (Homo sapiens) (P31645 whole entry, looked up): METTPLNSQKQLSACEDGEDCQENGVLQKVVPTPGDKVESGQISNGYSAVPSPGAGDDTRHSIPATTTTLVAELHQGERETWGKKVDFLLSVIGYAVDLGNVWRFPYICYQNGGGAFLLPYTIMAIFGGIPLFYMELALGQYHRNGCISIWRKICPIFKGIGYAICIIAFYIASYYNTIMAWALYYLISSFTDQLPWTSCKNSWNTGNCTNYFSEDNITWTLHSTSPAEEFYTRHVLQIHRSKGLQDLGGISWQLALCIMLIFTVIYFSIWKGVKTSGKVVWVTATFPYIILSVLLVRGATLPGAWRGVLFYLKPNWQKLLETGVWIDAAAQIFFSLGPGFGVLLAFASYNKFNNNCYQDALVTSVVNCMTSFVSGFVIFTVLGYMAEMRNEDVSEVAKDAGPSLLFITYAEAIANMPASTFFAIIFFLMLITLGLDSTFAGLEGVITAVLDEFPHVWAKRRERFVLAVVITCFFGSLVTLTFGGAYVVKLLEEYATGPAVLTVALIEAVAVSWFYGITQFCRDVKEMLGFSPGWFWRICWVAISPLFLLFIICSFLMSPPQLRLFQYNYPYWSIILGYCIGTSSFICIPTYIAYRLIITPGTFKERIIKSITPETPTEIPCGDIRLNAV

[14] = target: Casein kinase II subunit alpha (Homo sapiens) (UniProt P68400); details: Compound concentration 1.0 uM
[15] = target: Serine/threonine-protein kinase A-Raf (Homo sapiens) (UniProt P10398); details: Compound concentration 1.0 uM

Sequence of Serine/threonine-protein kinase N1 (Homo sapiens) (Q16512 2-942 limits assumed): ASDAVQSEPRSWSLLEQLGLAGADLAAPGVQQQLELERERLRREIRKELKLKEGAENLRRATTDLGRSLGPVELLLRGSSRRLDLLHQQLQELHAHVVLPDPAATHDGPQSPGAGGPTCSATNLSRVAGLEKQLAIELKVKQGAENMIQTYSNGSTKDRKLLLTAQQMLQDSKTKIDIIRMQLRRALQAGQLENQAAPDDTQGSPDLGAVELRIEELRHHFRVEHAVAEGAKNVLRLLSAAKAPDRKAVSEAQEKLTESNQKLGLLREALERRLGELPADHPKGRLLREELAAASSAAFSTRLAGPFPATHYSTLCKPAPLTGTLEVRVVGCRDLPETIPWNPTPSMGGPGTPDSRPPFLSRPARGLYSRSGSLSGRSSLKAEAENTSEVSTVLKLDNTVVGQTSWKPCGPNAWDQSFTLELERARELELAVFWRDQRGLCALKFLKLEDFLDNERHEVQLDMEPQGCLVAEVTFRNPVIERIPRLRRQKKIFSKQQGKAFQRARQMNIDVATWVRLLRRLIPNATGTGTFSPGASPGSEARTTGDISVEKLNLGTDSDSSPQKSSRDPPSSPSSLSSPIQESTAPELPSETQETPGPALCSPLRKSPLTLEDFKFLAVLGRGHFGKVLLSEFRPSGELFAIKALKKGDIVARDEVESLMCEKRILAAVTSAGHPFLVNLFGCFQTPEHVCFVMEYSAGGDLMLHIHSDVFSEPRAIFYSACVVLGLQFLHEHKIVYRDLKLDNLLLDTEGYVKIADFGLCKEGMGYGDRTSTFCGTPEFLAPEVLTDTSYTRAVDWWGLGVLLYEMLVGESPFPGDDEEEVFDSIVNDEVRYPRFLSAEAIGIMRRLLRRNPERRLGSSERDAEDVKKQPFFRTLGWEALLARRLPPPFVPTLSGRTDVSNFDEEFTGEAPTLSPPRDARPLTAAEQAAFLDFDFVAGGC
Sequence of Sigma intracellular receptor 2 (Q5BJF2 whole entry): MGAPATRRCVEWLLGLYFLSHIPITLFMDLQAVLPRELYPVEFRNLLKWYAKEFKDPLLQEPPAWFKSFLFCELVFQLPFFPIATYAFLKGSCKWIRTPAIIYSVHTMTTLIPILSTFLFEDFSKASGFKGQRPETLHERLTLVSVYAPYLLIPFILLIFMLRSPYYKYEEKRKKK

SMILES	Ki [1]	residual activity [2]	residual activity [3]	residual activity [4]	inhibition [5]	residual activity [6]	residual activity [7]	residual activity [8]	% residual kinase activity [9]	% residual kinase activity [10]	% residual kinase activity [11]	% residual kinase activity [12]	inhibition [13]	% residual kinase activity [14]	% residual kinase activity [15]
Cc1nc(C2CCN(C(=O)c3ccc(OC(F)(F)F)cc3N)CC2)c2ncc(N3CCN(C)CC3)cc2n1 [BAY-693]	4.9 µM	100%	100%	49%	-6.01%	100%	86%	88%	–	–	–	–	–	–	–
CN1CCN(c2cnc3c(C4CCN(C(=O)c5ccc(OC(F)(F)F)cc5N)CC4)ncnc3c2)CC1 [BAY-885]	–	100%	100%	100%	-2.34%	95%	94%	86%	107%	121%	105%	113%	32.4%	92%	96%
